Data as given in patent US5814627A, “3, 5-disubstituted and 3, 4, 5-trisubstituted 2-isoxazolines and isoxazoles, process for their preparation and their use as pharmaceuticals” (Hoechst Aktienegesellschaft, priority 1994, dated 1998).
Structures can show the parent of a compound that is named as a salt.

Assays:
[1] = test system: tumor cell line 20-10-5S (hybridoma cell line); experiment: Test 8: Inhibition of tumor cell proliferation; format: cell-based; settings: 48 h + 16 h tritiated thymidine incorporation; 20-10-5S cells
[2] = test system: PAF-induced asthma attack; experiment: Test 7: antiasthmatic effect, PAF-induced asthma attack; format: in vivo; settings: Cavia porcellus; i.d., 15 minutes before PAF; guinea pig
Experimental: Test 7: Testing for antiasthmatic effect
Anesthetized guinea pigs, which were cannulated in the jugular vein to allow injection of the PAF, were used for testing for antiasthmatic effect. The test preparations were also administered intravenously (i.v.), 5 min before PAF administration, into the blood stream through the same venous cannula, or else administered intraduodenally (i.d.), 15 minutes before the PAF, through an opening in the duodenum which had been installed and cannulated surgically. The bronchial width was recorded in an overflow pneumonogram before and after administering the preparation. Evaluation: ED50 in mg/kg i.d. as compared with the PAF-induced asthma attack.

adjuvant/arthritis model = experiment: Test 6: antiarthritic effect in the adjuvant/arthritis model; format: in vivo, rat (Wistar-Lewis); settings: Rattus norvegicus, po, 408 h, daily for 17 days, rat, read-out: Test 6 Paw volume (% inhibition); for inhibition in vivo at 25 mg/kg: 25 mg/kg orally; for inhibition in vivo at 50 mg/kg: 50 mg/kg orally
[3] = test system: cyclooxygenase-dependent thrombocyte aggregation; experiment: Test 5: Cyclooxygenase-dependent thrombocyte aggregation; format: cell-based, human; settings: Homo sapiens, arachidonic acid as inducer, read-out: Test 5 residual activity (cyclooxygenase-dependent thrombocyte aggregation), percent of control
Outline: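 Citrated human platelet-rich plasma was preincubated 10 min at 37 °C with test substance diluted 1:30 in 50 mM Tris-HCl pH 8.0, 90 mM NaCl. Aggregation was triggered with arachidonic acid (5 mg/ml, 20 μl) under 800 rpm stirring in an aggregometer. Values are tested concentration (μM) and residual activity as % of control.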

[4] = test system: leukotriene B4 synthesis in white blood cells; experiment: Test 3: LTB4 formation by white blood cells; format: cell-based; settings: Homo sapiens, read-out: Test 3 residual activity (LTB4 formation), percent of control
Experimental: TEST 3. LTB4 formation by white blood cells
Isolation of white blood cells:
40 ml of human blood were mixed with 8 ml of 6% dextran solution (dextran, mw: 480,000 in PM16). After one hour at room temperature, the supernatant,which was composed of white blood cells, was removed, diluted with an equal volume of PM16, and centrifuged for 15 minutes at 300×g (1600 rpm). The sediment was next resuspended in approximately 5-6 ml of PM16 and, once the cell count had been determined in a Coulter Counter, adjusted to 10^7 cells/ml.
The test mixture comprised 0.24 ml of cell suspension, 0.03 ml of 20 mM CaCl2 /5 mM MgCl2 and 5 μl of test substance. Following 15 minutes of preincubation at 37° C., the reaction was started with 0.03 ml of A23187/glutathione (100 μg of A23187/ml; 15.4 μg of glutathione/ml). The incubation was terminated after 5 minutes at 37° C. by immediate cooling of the samples down to 0° C. After centrifuging for 2 minutes in an Eppendorff Centrifuge (0° C.), the supernatant was removed and examined chromatographically.
High pressure liquid chromatography (HPLC): the HPLC equipment comprises a Kratos pump (Spectro-flow 400), a cooled automatic BT 7041 sample injector (Biotronik) having a 75 μl sample loop, a Nucleosil C18 column (100*3 mm, 5 μm particles of Chrompack), a UV detector (Kratos) Spectroflow 757 (wavelength: 280 nm, measurement range: 0.1 AUFS, time constant: 0.5 s) and a Spectra Physics integrator (SP 4270). The eluent (725 ml of methanol, 275 ml of water and 0.1 ml of acetic acid) was supplied at a flow rate of 0.7 ml/minute and at a pressure of about 100 bar.
When doing this, the measurement range which has been set can be examined and altered if necessary. It is also vital to measure the test substances at the particular test concentration (e.g.: 10^-5 M) in PM16 before the cell incubation, since the test substances might conceal the LTB4 peak. If this is the case, a lower concentration must be selected.
(§1) The values in the table show the concentration of the test substance which was employed in μM and, besides this, the residual activity measured in percent based on the control, which was set to be 100%. The interleukin is additionally indicated in test 4.

[5] = test system: polymorphonuclear leucocytes (PMNL); experiment: Test 2: Release of oxygen radicals from human PMNL; format: cell-based; settings: read-out: Test 2 residual activity (release of oxygen radicals), percent of control
Experimental: Isolation of polymorphonuclear leucocytes (PMNL) from human peripheral blood for carrying out tests 1 and 2 10 ml of human blood were diluted with 10 ml of HBSS (Serva) and underlaid with 15 ml of Lymphoprep (Dr. Molter GmbH, Heidelberg). The sample was then centrifuged for 25 minutes at 400×g (1600 revolutions per minute, Minifuge 2, Heraeus, Osterode). […] A white ring, composed of mononuclear cells, is located between these two phases. The lowermost phase is composed of erythrocytes which are covered with a white layer of PMNL. The uppermost phase, and also the Lymphoprep and the white ring, were carefully removed using a syringe. The remaining sediment was carefully resuspended in 15 ml of 3% dextran in PM16 (mw: 485,000, Sigma, Deisenhofen). The suspension was then left to stand at room temperature for one hour. During this time, the erythrocytes sedimented while the PMNL remained in the supernatant. The supernatant was removed, diluted with an approximately equal volume of PM16, and centrifuged for 15 minutes at 400×g. Should the PMNL sediment be heavily contaminated with erythrocytes, it is necessary to carry out a hypotonic lysis. To do this, the sediment was resuspended in 750 μl of water. After exactly 15 seconds, the suspension was diluted with approximately 7 ml of PM16 and centrifuged for 10 minutes at 400×g. If necessary, this lysis was repeated once more. Otherwise, the PMNL sediment was resuspended in a suitable medium.
The PMNL were resuspended (5·10^6 cells/ml) in Dulbecco's PBS, supplemented with 7.5 mM glucose. Care must be taken to ensure that the PMNL are free of erythrocytes. 100 μl of PMNL, 700 μl of PBS+glucose and 100 μl of cytochrome C (9.38 mg/ml of PBS+glucose) were mixed in a semi-microcuvette. 100 μl of PMNL, 500 μl of PBS+glucose, 100 μl of cytochalasin B ([…]), 100 μl of TNF (0.05 ng) and 100 μl of cytochrome C (9.38 mg/ml of PBS+glucose) were mixed for the fMLP-induced release of oxygen. Measurements were made in a double-beam photometer meter (Perkin-Elmer 552 S) at a wavelength of 550 nm. The measurement range is 0-1 extinction units. The cuvettes were temperature-equilibrated to 37° C. The reference cuvette additionally contained 10 μl of SOD (6 mg of SOD/ml of PBS+glucose). Following a preincubation of 5 minutes, the reaction is started with 100 μl of inducer. The reaction is started with 1·10^-7 mol of fMLP.
as §1

| Compound | IC50 [1] | ED50 [2] | inhibition in vivo at 25 mg/kg (adjuvant/arthritis model) | activity at 10 µM [3] | inhibition in vivo at 50 mg/kg (adjuvant/arthritis model) | other results |
| --- | --- | --- | --- | --- | --- | --- |
| C[C@H](O)[C@@H]1CC(c2cc(C(C)(C)C)c(O)c(C(C)(C)C)c2)=NO1 (relative stereo) [Example 20] | < 5 µM | ~50 mg/kg | 67% | 100% |  |  |
| COP(=O)(O)C1CC(c2cc(C(C)(C)C)c(O)c(C(C)(C)C)c2)=NO1 (centres unmarked) [Example 7, Monomethyl 3-(4-hydroxy-3,5-di-tert-butylphenyl)-2-isoxazolin-5-ylphosphonate] |  | 10 to 30 mg/kg |  |  |  | activity at 100 µM [3]: 95% |
| Cc1cc(CNC(=O)C2(C)CC(c3cc(C(C)(C)C)c(O)c(C(C)(C)C)c3)=NO2)cc(C)c1O (centres unmarked) [Example 14] |  | 10 to 50 mg/kg |  | 100% |  |  |
| CC(OC(=O)[C@@H](N)Cc1ccccc1)C1CC(c2cc(C(C)(C)C)c(O)c(C(C)(C)C)c2)=NO1 (stereo partly drawn) [Example 73, L-Phenylalanine-1-(3-(4-hydroxy-3,5-di-tert-butylphenyl)-2-isoxazolin-5-yl)ethyl ester hydrochloride] |  |  |  |  | 73% | activity at 1 µM ([5]; 1 μM): 100%; activity at 10 µM [5]: 9%; activity at 25 µM ([3]; 25 μM): 100% |

Now from value to compound, other results behind:

| IC50 [1] | Compound | ED50 [2] | inhibition in vivo at 25 mg/kg (adjuvant/arthritis model) | activity at 10 µM [3] | inhibition in vivo at 50 mg/kg (adjuvant/arthritis model) | other results |
| --- | --- | --- | --- | --- | --- | --- |
| 5 to 10 µM | CC(C)(C)c1cc(C2=NOC(CO)C2)cc(C(C)(C)C)c1O (centres unmarked) [Example 1, 3-(4-Hydroxy-3,5-di-tert-butylphenyl)-5-hydroxymethyl-2-isoxazoline] | 10 to 50 mg/kg |  | 93% | 70% | activity at 10 µM [4]: 92% |
| < 5 µM | CC(C)(C)c1cc(C2=NOC(c3ccsc3)C2)cc(C(C)(C)C)c1O (centres unmarked) [Example 8] | ~10 mg/kg |  |  | 67% | activity at 1 µM ([4]; 1 μM): 93%; activity at 10 µM [4]: 15%; activity at 100 µM [3]: 91% |
| 5 to 10 µM | CC(C)(C)c1cc(-c2cc(CN)on2)cc(C(C)(C)C)c1O [Example 48] | 10 to 50 mg/kg |  |  | 60% |  |
| 8 to 10 µM | C/C(O)=C(\C#N)C(=O)NCc1cc(-c2cc(C(C)(C)C)c(O)c(C(C)(C)C)c2)no1 [Example 53, 2-Cyano-3-hydroxybut-2-enecarboxylic acid(3-(4-hydroxy-3,5-di-tert-butylphenyl)isoxazol-5-ylmethyl)amide] | 10 to 50 mg/kg | 48% |  |  |  |
| 5 µM | CC(OC(=O)[C@@H](N)Cc1ccccc1)c1cc(-c2cc(C(C)(C)C)c(O)c(C(C)(C)C)c2)no1 (stereo partly drawn) [Example 70, L-Phenylalanine-1-(3-(4-hydroxy-3,5-di-tert-butylphenyl)isoxazol-5-yl)ethylester hydrochloride] |  | 59% |  |  | activity at 10 µM [5]: 22% |
